Measured values from patent US8492371B2, “Compounds as cannabinoid receptor ligands” (priority 2009, dated 2013).
Where two headings read alike, the source gives them in different places.

How the values were obtained:
microglial = details: in vitro; blocked by SR144528; cited from earlier work
[1] = rat formalin model of persistent pain; cited from earlier work
[2] = acute thermal, persistent, inflammatory and neuropathic pain models; cited from earlier work
[3] = neuropathic, incisional, chronic and acute inflammatory pain; cited from earlier work
rat CB2 receptors = molecular target: T1, rat CB2 receptors (Rattus norvegicus, UniProt Q9QZN9); test: Rat CB2 radioligand binding assay ([3H]CP-55,940 competition)
T1 construct: expressed in transfected cells; host or cells: HEK293
T1 sequence (Q9QZN9 1-360): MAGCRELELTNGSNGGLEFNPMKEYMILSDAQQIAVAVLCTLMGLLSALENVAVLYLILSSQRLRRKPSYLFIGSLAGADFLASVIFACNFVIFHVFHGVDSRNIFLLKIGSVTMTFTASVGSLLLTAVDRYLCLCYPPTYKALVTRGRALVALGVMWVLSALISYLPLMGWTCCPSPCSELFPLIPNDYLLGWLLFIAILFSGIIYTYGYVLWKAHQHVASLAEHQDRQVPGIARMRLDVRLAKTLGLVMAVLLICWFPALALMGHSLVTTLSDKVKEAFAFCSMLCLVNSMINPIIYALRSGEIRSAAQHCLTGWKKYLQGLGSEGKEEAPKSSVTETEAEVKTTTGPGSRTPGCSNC
Outline: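 Membranes from HEK293 cells stably expressing rat CB2 (20 μg/well) incubated 45 min at 30 °C with 0.5 nM [3H]CP-55,940 and five competitor concentrations in Tris/EDTA/MgCl2 buffer with 0.5 mg/mL BSA, pH 7.4. Filtration and scintillation counting; nonspecific binding with 10 μM unlabeled CP-55,940.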

human CB2 receptors = molecular target: T2, human CB2 receptors (Homo sapiens, UniProt P34972); test: Human CB2 radioligand binding assay ([3H]CP-55,940 competition)
T2 construct: expressed in transfected cells; host or cells: HEK293
Outline: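 Membranes from HEK293 cells stably expressing human CB2 (5 μg/well) incubated 90 min at 30 °C with 0.5 nM [3H]CP-55,940 and five concentrations of displacer (0.01 nM–10 μM) in pH 7.4 Tris/EDTA/MgCl2 buffer with fatty acid free BSA. Bound radioactivity counted after filtration; nonspecific binding defined with 10 μM unlabeled CP-55,940.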

[4] = cited from earlier work
[5] = HEK293 membranes, 0.5 nM [3H]CP-55,940, read-out: rat CB2 Ki
[6] = HEK293 membranes, 0.5 nM [3H]CP-55,940, read-out: human CB2 Ki

T2 sequence (P34972 whole entry): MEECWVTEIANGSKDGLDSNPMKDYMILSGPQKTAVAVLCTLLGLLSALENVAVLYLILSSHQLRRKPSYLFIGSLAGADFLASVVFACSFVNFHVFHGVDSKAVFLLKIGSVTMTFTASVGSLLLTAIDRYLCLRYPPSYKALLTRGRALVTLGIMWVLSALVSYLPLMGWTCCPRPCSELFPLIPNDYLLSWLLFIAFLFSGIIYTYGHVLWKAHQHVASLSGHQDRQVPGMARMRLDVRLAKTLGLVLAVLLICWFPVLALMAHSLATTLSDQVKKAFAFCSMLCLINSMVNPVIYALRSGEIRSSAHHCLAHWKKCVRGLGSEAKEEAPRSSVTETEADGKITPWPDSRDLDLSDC

Row | Compound | Ki (rat CB2 receptors) [nM] | Ki (human CB2 receptors) [nM] | also measured
1 | CCCC(C)(C)c1ccc2c(c1)OC(C)(C)[C@@H]1CC=C(C)C[C@@H]21 [JWH-133] |  |  | effect on β-amyloid-induced microglial activation and neurotoxicity (microglial): abrogated β-amyloid-induced microglial activation and neurotoxicity
2 | CCCCCCC(C)(C)c1cc(OC)c([C@@H]2C=C(CO)[C@@H]3C[C@H]2C3(C)C)c(OC)c1 [HU-308] |  |  | antinociceptive response [1]: elicits an antinociceptive response
3 | CN1CCCCC1Cn1cc(C(=O)c2cc([N+](=O)[O-])ccc2I)c2ccccc21 (centres unmarked) [AM-1241] |  |  | analgesic efficacy [2]: exhibits robust analgesic efficacy
4 | COc1ccc2c(c1)c(CCN1CCOCC1)c(C)n2C(=O)c1cccc(Cl)c1Cl [GW405833] |  |  | efficacy in pain models [3]: is efficacious
5 | CC(CCc1ccccc1)NC(=O)/N=c1\sc(C(C)(C)C)nn1C[C@H]1CCCO1 (stereo partly drawn) [Example 79, N-[(2Z)-5-tert-butyl-3-[(2R)-tetrahydrofuran-2-ylmethyl]-1,3,4-thiadiazol-2(3 H)-ylidene]-N′-(1-methyl-3-phenylpropyl)urea] | 11 | 32 | 
6 | Cn1c(C(C)(C)C)c/c(=N\C(=O)c2cc(Br)ccc2OCCF)n1C[C@H]1CCCO1 [Example 59, 5-bromo-N-{(3E)-5-tert-butyl-1-methyl-2-[(2R)-tetrahydrofuran-2-ylmethyl]-1,2-dihydro-3H-pyrazol-3-ylidene}-2-(2-fluoroethoxy)benzamide] | 27 | 28 | 
7 | Cn1c(C(C)(C)C)c/c(=N\C(=O)c2cc(C(F)(F)F)ccc2Oc2ccccc2)n1C[C@H]1CCCO1 [Example 133, N-{(3E)-5-tert-butyl-1-methyl-2-[(2R)-tetrahydrofuran-2-ylmethyl]-1,2-dihydro-3H-pyrazol-3-ylidene}-2-phenoxy-5-(trifluoromethyl)benzamide] | 39 | 107 | 
8 | CC(C)=CCOc1ccc(C(F)(F)F)cc1C(=O)/N=c1\cc(C(C)(C)C)n(C)n1C[C@H]1CCCO1 [Example 93, N-{(3E)-5-tert-butyl-1-methyl-2-[(2R)-tetrahydrofuran-2-ylmethyl]-1,2-dihydro-3H-pyrazol-3-ylidene}-2-[(3-methylbut-2-enyl)oxy]-5-(trifluoromethyl)benzamide] | 15 | 17 | 
9 | COCc1ccc(C(F)(F)F)cc1C(=O)/N=c1\cc(C(C)(C)C)n(C)n1C[C@H]1CCCO1 [Example 110, N-{(3E)-5-tert-butyl-1-methyl-2-[(2R)-tetrahydrofuran-2-ylmethyl]-1,2-dihydro-3H-pyrazol-3-ylidene}-2-(methoxymethyl)-5-(trifluoromethyl)benzamide] | 3 | 12 | 
10 | COc1ccc(C(F)(F)F)cc1C(=O)/N=c1\c2c(n(C)n1C[C@H]1CCCO1)CCC2 [Example 32, 2-methoxy-N-[(3E)-1-methyl-2-[(2R)-tetrahydrofuran-2-ylmethyl]-1,4,5,6-tetrahydrocyclopenta[c]pyrazol-3(2H)-ylidene]-5-(trifluoromethyl)benzamide] |  | 261 | Ki (rat CB2 receptors; [5]): 114 nM
11 | COc1ccc(Cl)cc1C(=O)/N=c1\cc(C(C)(C)C)n(C)n1C[C@H]1CCCO1 [Example 45, N-{(3E)-5-tert-butyl-1-methyl-2-[(2R)-tetrahydrofuran-2-ylmethyl]-1,2-dihydro-3H-pyrazol-3-ylidene}-5-chloro-2-methoxybenzamide] | 4.9 | 8.2 | 
12 | Cn1c(C(C)(C)C)c/c(=N\C(=O)c2cc(C(F)(F)F)ccc2OCCC2(O)CCCC2)n1C[C@H]1CCCO1 [Example 94, N-{(3E)-5-tert-butyl-1-methyl-2-[(2R)-tetrahydrofuran-2-ylmethyl]-1,2-dihydro-3H-pyrazol-3-ylidene}-2-[2-(1-hydroxycyclopentyl)ethoxy]-5-(trifluoromethyl)benzamide] | 3.3 | 2.6 | 
13 | Cn1c(C(C)(C)C)c/c(=N\C(=O)c2cc(C(F)(F)F)ccc2OCCF)n1C[C@H]1CCCO1 [Example 22, N-{(3E)-5-tert-butyl-1-methyl-2-[(2R)-tetrahydrofuran-2-ylmethyl]-1,2-dihydro-3H-pyrazol-3-ylidene}-2-(2-fluoroethoxy)-5-(trifluoromethyl)benzamide] | 10 | 24 | 
14 | CNC(=O)[C@@H](NC(=O)/N=c1\sc(C(C)(C)C)nn1C[C@H]1CCCO1)C(C)(C)C [Example 82, N^2-({[(2Z)-5-tert-butyl-3-[(2R)-tetrahydrofuran-2-ylmethyl]-1,3,4-thiadiazol-2(3H)-ylidene]amino}carbonyl)-N^1,3-dimethyl-L-valinamide] | 10 | 3.8 | 
15 | COc1ccc(Cl)cc1C(=O)/N=c1\sc(C2CC2)nn1CC1CCCO1 (centres unmarked) [Example 2, 5-chloro-N-[(2Z)-5-cyclopropyl-3-(tetrahydrofuran-2-ylmethyl)-1,3,4-thiadiazol-2(3 H)-ylidene]-2-methoxybenzamide] | 12 | 17 | 
16 | COc1ccc(Cl)cc1C(=O)/N=c1\oc(C(C)(C)C)cn1C[C@H]1CCCO1 [Example 13, N-[(2Z)-5-tert-butyl-3-[(2R)-tetrahydrofuran-2-ylmethyl]-1,3-oxazol-2(3H)-ylidene]-5-chloro-2-methoxybenzamide] | 1.9 | 4.8 | 
17 | COC(=O)c1cccc(C(=O)/N=c2\cc(C(C)(C)C)n(C)n2C[C@H]2CCCO2)c1 [Example 115] | 5.4 | 25 | 
18 | SR144528 |  |  | ovariectomy-induced bone loss ([4]; mice, model for post-menopausal osteoporosis): reverse ovariectomy-induced bone loss; osteoclast activity ([4]; mouse, in vivo): inhibit osteoclast activity
19 | Cn1c(C(C)(C)C)c/c(=N\C(=O)c2cc(C(F)(F)F)ccc2OCC(F)F)n1C[C@H]1CCCO1 [Example 35, N-{(3E)-5-tert-butyl-1-methyl-2-[(2R)-tetrahydrofuran-2-ylmethyl]-1,2-dihydro-3H-pyrazol-3-ylidene}-2-(2,2-difluoroethoxy)-5-(trifluoromethyl)benzamide] | 5.5 | 17 | 
20 | Cn1c(C(C)(C)C)c/c(=N\C(=O)c2cc(C(F)(F)F)ccc2OCC2(O)CCC2)n1C[C@H]1CCCO1 [Example 44, N-{(3E)-5-tert-butyl-1-methyl-2-[(2R)-tetrahydrofuran-2-ylmethyl]-1,2-dihydro-3H-pyrazol-3-ylidene}-2-[(1-hydroxycyclobutyl)methoxy]-5-(trifluoromethyl)benzamide] | 18 | 17 | 
21 | COc1ccc(C#N)cc1C(=O)/N=c1\cc(C(C)(C)C)n(C)n1C[C@H]1CCCO1 [Example 48] | 29 |  | Ki (human CB2 receptors; [6]): 143 nM
22 | COc1c(Cl)cc(C(F)(F)F)cc1C(=O)/N=c1\cc(C(C)(C)C)n(C)n1C[C@H]1CCCO1 [Example 53, N-{(3E)-5-tert-butyl-1-methyl-2-[(2R)-tetrahydrofuran-2-ylmethyl]-1,2-dihydro-3H-pyrazol-3-ylidene}-3-chloro-2-methoxy-5-(trifluoromethyl)benzamide] | 4.3 | 16 | 
23 | N-({[(2Z)-5-tert-butyl-3-[(2R)-tetrahydrofuran-2-ylmethyl]-1,3,4-thiadiazol-2(3 H)-ylidene]amino}carbonyl)-L-phenylalaninamide [Example 80] |  |  | Ki (rat CB2 receptors; [5]): 38 nM; Ki (human CB2 receptors; [6]): 28 nM
24 | Cn1c(C(C)(C)C)c/c(=N\C(=O)c2cc(C(F)(F)F)ccc2OCC2CC(F)(F)C2)n1C[C@H]1CCCO1 [Example 19, N-{(3E)-5-tert-butyl-1-methyl-2-[(2R)-tetrahydrofuran-2-ylmethyl]-1,2-dihydro-3H-pyrazol-3-ylidene}-2-[(3,3-difluorocyclobutyl)methoxy]-5-(trifluoromethyl)benzamide] | 11 | 22 | 
25 | COc1ccc(C(F)(F)F)cc1C(=O)/N=c1\cc(C(C)(C)C)n(C)n1CC1CCOC1 (centres unmarked) [Example 85, N-[(3E)-5-tert-butyl-1-methyl-2-(tetrahydrofuran-3-ylmethyl)-1,2-dihydro-3H-pyrazol-3-ylidene]-2-methoxy-5-(trifluoromethyl)benzamide] | 13 | 87 | 
26 | COc1ccc(C(F)(F)F)cc1C(=O)/N=c1\cc(C(C)(C)C)n(C)n1C[C@H]1CCCO1 [Example 47, N-{(3E)-5-tert-butyl-1-methyl-2-[(2R)-tetrahydrofuran-2-ylmethyl]-1,2-dihydro-3H-pyrazol-3-ylidene}-2-methoxy-5-(trifluoromethyl)benzamide] | 3.7 | 17 | 
27 | CCOCCOc1ccc(C(F)(F)F)cc1C(=O)/N=c1\cc(C(C)(C)C)n(C)n1C[C@H]1CCCO1 [Example 31, N-{(3E)-5-tert-butyl-1-methyl-2-[(2R)-tetrahydrofuran-2-ylmethyl]-1,2-dihydro-3H-pyrazol-3-ylidene}-2-(2-ethoxyethoxy)-5-(trifluoromethyl)benzamide] | 6.2 | 11 | 
